Test results from patent US20110207944A1, “VITAMIN D3 LACTAM DERIVATIVE” (TEIJIN PHARMA LIMITED, priority 2008, published 2011).

Columns and labels:
human VDR = target: T1, human VDR (Homo sapiens, UniProt P11473); assay: Vitamin D3 receptor-antagonist activity: human osteocalcin promoter luciferase reporter in HOS cells transfected with human VDR and human RXR; type: cell-based; conditions: for Antagonist specific activity against TEI-9647 (%): IC50 of test compound with respect to IC50 of TEI-9647 in each experiment; for IC50: luciferase activity in HOS cells, with 1α,25-dihydroxyvitamin D3 1×10^−8 M, 24 hours
T1 construct: expressed in transfected cells; host or cells: HOS cells (human osteosarcoma, ATCC), pcDNA3 expression vector, Lipofectamine 2000
T1 sequence (P11473 1-427): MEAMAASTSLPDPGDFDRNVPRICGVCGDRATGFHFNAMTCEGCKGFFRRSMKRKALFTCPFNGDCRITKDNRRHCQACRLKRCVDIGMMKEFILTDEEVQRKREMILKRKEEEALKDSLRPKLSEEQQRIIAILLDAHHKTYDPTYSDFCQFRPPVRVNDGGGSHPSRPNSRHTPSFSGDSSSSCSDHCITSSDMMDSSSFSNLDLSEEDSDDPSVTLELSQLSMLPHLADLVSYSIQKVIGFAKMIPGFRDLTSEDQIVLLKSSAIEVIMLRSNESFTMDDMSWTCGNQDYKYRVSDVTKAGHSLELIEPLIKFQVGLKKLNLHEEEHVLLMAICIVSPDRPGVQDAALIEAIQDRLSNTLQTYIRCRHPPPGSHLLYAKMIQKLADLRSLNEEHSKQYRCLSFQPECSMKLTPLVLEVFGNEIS
Description: Vitamin D3 Receptor-Antagonist Activity in Terms of the Transcription Activity in Human Osteocalcin by 1α,25-dihydroxyvitamin D3 as a Marker
(1) A pGL3 vector (Promega Corp.) was used as a reporter vector. The promoter sequence of the human osteocalcin gene, which was obtained by a known method (Ozono et al., J. Biol. Chem., 265:21881-21888, 1990), was cloned from cDNA acquired from HOS cells (obtained from ATCC) and inserted into the upstream of the luciferase gene on the reporter vector. An expression vector was constructed by inserting a DNA sequence encoding human VDR and human RXR into a pcDNA3 vector (Invitrogen Corp). The HOS cells were incubated in a DMEM medium supplemented with 10% FBS at 37° C. in the presence of 5% CO2, and subcultivated every 2 or 3 days.
(2) Cells being subcultivated were collected by centrifugation and re-suspended in a serum and phenol red-free DMEM medium at 4×10^5 cells/mL. The re-suspension of cells was plated in a 96 well plate at 0.1 mL/well. In this system, various vectors described in (1) were added at 0.05 mL/well with Lipofectamin 2000 (Invitrogen Corp.). After the incubation for 3 hours at 37° C., 1α,25-dihydroxyvitamin D3 and the compounds of the present invention in various concentrations or TEI-9647 (note) as a control (the final concentration: 1×10^−8 M for 1α,25-dihydroxyvitamin D3, and 1×10^−6M and 1×10^−12M for the compounds of the present invention and TEI-9647) were added to each well. After incubation at 37° C. for 24 hours, the medium was removed, the cells were washed with PBS(−) once, and measured for the luciferase activity using a Dual Glo-Luciferase Assay kit (Promega Corp.) by luminometer (Berthold Corp.). The resulting luciferase values were plotted against the concentration of the test compounds and IC50 was determined as the concentration of the test compound at which the luciferase value was inhibited by 50%. Furthermore, to compare the intensities of activity among experiments, the IC50 value of the test compounds with respect to the IC50 value of […] in each experiment was calculated as the antagonist specific activity (%) against TEI-9647.

[1] = target: T2, Human Vitamin D3 Receptor (VDR) (Homo sapiens, UniProt P11473); assay: Binding affinity to human vitamin D3 receptor (Polarscreen Vitamin D Receptor Competitor assay, Red; fluorescence polarization); conditions: ratio of IC50 relative to IC50 of 1α,25-dihydroxyvitamin D3
T2 construct: purchased Invitrogen Corporation
T2 sequence (P11473 1-427): T1 sequence (P11473 1-427)
Protocol: Binding Affinity to Human Vitamin D3 Receptor (VDR) This binding affinity was assessed by a VDR affinity measurement kit (Polarscreen™ Vitamin D Receptor Competitor assay, Red; Invitrogen Corporation). The compounds of the present invention or 1α,25-dihydroxyvitamin D3 at various concentrations in DTT-containing buffer (pH 7.5) were mixed with fluorescence-labeled VDR ligand-human VTR complex in DTT-containing buffer (pH 7.5). The degree of polarization of the resulting solution was measured after the incubation of the solution at room temperature. The polarization values were plotted against the concentration of the test compounds, IC50 (the concentration of the test compounds at which the polarized value is reduced to 50%) was determined.

HL-60 cells = assay: Vitamin D3 receptor-antagonist effect: inhibition of 1α,25-dihydroxyvitamin D3-induced differentiation of HL-60 (NBT reduction activity); type: cell-based; conditions: Homo sapiens, 96 h; NBT-positive HL-60 cells, co-treatment with 1α,25-dihydroxyvitamin D3 1×10^−8 M, 4 days
Description: Vitamin D3 Receptor-Antagonist Effect in Terms of Cellular Differentiation-Inducing Activity of 1α,25-dihydroxyvitamin D3 in HL-60 as a Marker
(1) A HL-60 cell line purchased from a cell bank (Japanese Cancer Research Resource Bank, Cell number: JCRB0085) was used. The cells were frozen for storage as a frozen storage stock to prevent cell characteristic changes due to successive cultivations. The cells were defrosted prior to the initiation of the experiment, and those which started successive culturing were used in the experiment. Cells subcultured for one month to a half year were used for the experiment. The successive culturing was carried out by diluting the cells at a ratio of about 1/100 (1-2×10^4 cells/mL) in a fresh medium after the collection of cells from a cell suspension by centrifugation. RPMI-1640 supplemented with 10% fetal bovine serum was used as the culture medium.
(2) The subcultured cells by the procedure described in (1) were collected by centrifugation and re-suspended in the medium at 5×10^3 cells/mL, and the cells were plated into a 24-well culture dish at 1 mL/well. To this system, a solution of 1α,25-dihydroxyvitamin D3 at a concentration of 1×10^−5 M and the compounds of the present invention in a range of […] to 3×10^−3 M in ethanol, respectively, were added at 1 μL per well (the final concentration: 1×10^−8 M for 1α,25-dihydroxyvitamin D3, and 1×10^−9 M to 3×10^−6 M for the compounds of the present invention). Ethanol was added at 1 μL per well as a control. After the plate was incubated at 37° C. for 4 days in the presence of 5% CO2, the cells were separated and collected by centrifugation.
(3) The induction of nitroblue tetrazolium (hereinafter NBT) reduction activity was used as a marker for cell differentiation-inducing activity of HL-60 cells. The measurement of NBT reduction activity was carried out according to the following procedure. Specifically, cells collected by centrifugation were re-suspended in a fresh medium. Then 0.1% of NBT and 12-O-tetradecanoylphorbor-13-acetate at a final concentration of 100 ng/mL were added to the cell suspension and the mixture was incubated at 37° C. for 25 minutes. Then the cytospin smears were prepared and stained with Kernechtrot after air-drying. The ratio of positive cells expressing NBT reduction activity was determined under optical microscopy. Percentage ratios of the ratio of NBT-positive cells in a simultaneous treatment with 1α,25-dihydroxyvitamin D3 (1×10^−8 M) and a compound of the present invention (1×10^−9M and 3×10^−6 M) over the ratio of the NBT-positive cells in a single treatment with 1α,25-dihydroxyvitamin D3 (1×10^−8 M) were plotted against the treating concentration of the compounds of the present invention. […]

| Compound | Antagonist specific activity against TEI-9647 (%) (human VDR) | IC50 (human VDR) [nM] | VDR affinity (%) [1] [%] | IC50 (HL-60 cells) [nM] |
| --- | --- | --- | --- | --- |
| C=C1/C(=C\C=C2/CCC[C@]3(C)[C@@H]([C@H](C)CC4CC(C)(O)C(=O)N4Cc4cc(OCC)cc(OCC)c4)CC[C@@H]23)C[C@@H](O)[C@H](C)[C@@H]1O (single isomer, unassigned) [Compound No. 41c, 2α-methyl-1α,25-dihydroxyvitamin D3-26,23-lactam-N-(3,5-diethoxybenzyl)] | 17.8 | 52.7 | 30 |  |
| C=C1/C(=C\C=C2/CCC[C@]3(C)[C@@H]([C@H](C)CC4CC(C)(O)C(=O)N4CCc4ccccc4)CC[C@@H]23)C[C@@H](O)[C@H](CCCO)[C@@H]1O (stereo partly drawn) [Compound No. 12b, 2α-(3-hydroxypropyl)-1α,25-dihydroxyvitamin D3-26,23-lactam-N-(2-phenethyl)] |  |  |  | 170 |
| C=C1/C(=C\C=C2/CCC[C@]3(C)[C@@H]([C@H](C)CC4CC(C)(O)C(=O)N4Cc4cc(OCC)cc(OCC)c4)CC[C@@H]23)C[C@@H](O)[C@H](C)[C@@H]1O (stereo partly drawn) [Compound No. 41a, 2α-methyl-1α,25-dihydroxyvitamin D3-26,23-lactam-N-(3,5-diethoxybenzyl)] |  |  | 31 |  |

Further lines, results first:

| Antagonist specific activity against TEI-9647 (%) (human VDR) | IC50 (human VDR) [nM] | VDR affinity (%) [1] [%] | IC50 (HL-60 cells) [nM] | Compound |
| --- | --- | --- | --- | --- |
| 6.1 | 75 |  |  | C=C1/C(=C\C=C2/CCC[C@@]3(C)C2CC[C@@H]3[C@H](C)CC2CC(C)(O)C(=O)N2Cc2cc(OCC)cc(OCC)c2)C[C@@H](O)[C@H](CCCO)[C@@H]1O (stereo partly drawn) [Compound No. 42c, 2α-(3-hydroxypropyl)-1α,25-dihydroxyvitamin D2-26,23-lactam-N-(3,5-diethoxybenzyl)] |
| 9.8 | 95.8 |  |  | C=C1/C(=C\C=C2/CCC[C@]3(C)[C@@H]([C@H](C)CC4CC(C)(O)C(=O)N4Cc4cc(OCC)cc(OCC)c4)CC[C@@H]23)C[C@@H](O)[C@H](OCCCO)[C@@H]1O (stereo partly drawn) [Compound No. 43c, 2α-(3-hydroxypropoxy)-1α,25-dihydroxyvitamin D3-26,23-lactam-N-(3,5-diethoxybenzyl)] |
